Test results as given in US8686024B2, “Indoline derivatives” (priority 2009, dated 2014).
Where two headings read alike, the source gives them in different places.

Tests used:
[1] = molecular target: T1, acetylcholine esterase (AChE) (Mus musculus, UniProt P21836); assay: In vitro assay for choline esterase inhibition (Ellman method), acetylthiocholine substrate, mouse brain homogenate; type: biochemical
T1 construct: brain homogenate and serum of mouse were used as choline esterase enzyme sources; from tissue; host or cells: mouse brain homogenate
T1 sequence (P21836 32-614): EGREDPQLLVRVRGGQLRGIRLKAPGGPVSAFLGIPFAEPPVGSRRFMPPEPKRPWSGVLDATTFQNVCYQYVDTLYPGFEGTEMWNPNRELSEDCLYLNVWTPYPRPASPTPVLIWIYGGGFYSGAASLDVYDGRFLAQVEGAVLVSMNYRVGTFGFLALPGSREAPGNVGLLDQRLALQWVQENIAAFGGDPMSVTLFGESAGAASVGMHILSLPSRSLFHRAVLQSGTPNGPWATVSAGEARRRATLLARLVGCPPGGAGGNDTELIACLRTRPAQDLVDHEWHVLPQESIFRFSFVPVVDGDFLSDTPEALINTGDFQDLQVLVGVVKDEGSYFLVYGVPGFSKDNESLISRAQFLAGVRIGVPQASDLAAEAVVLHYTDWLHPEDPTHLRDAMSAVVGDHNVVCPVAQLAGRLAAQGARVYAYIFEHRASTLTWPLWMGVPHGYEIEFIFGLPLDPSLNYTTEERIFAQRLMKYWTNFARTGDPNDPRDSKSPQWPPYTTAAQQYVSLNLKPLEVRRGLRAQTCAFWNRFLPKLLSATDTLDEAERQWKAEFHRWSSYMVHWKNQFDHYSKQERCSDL
Experimental: (§1) For measurement of esterase activity, brain homogenate and serum of mouse were used as choline esterase enzyme sources, and the method of Ellman et. al (Biochemical pharmacology 7: 88-95 1961) were referred. Compound of each example were diluted in dimethylsulfoxide.
(§2) In detail, acetylthiocholine or butyrylthiocholine as substrates, test compounds, and DNTB [[…]] were added to the mouse brain homogenate or serum, respectively.
(§3) After incubation, thiocholine was produced by enzyme reaction in the mixture, and then, the yellow product was formed by the reaction of thiocholine and DTNB. The activity of acetylcholine esterase (AChE) or butyrylcholine esterase (BuChE) was evaluated by determination of absorbance at 415 nm. […] And the selectivity for BuChE inhibition of each compound was calculated by the ratio: IC50 (AchE)/IC50 (BuChE).

[2] = molecular target: T2, butyrylcholine esterase (BuChE) (Mus musculus, UniProt Q03311); assay: In vitro assay for choline esterase inhibition (Ellman method), butyrylthiocholine substrate, mouse serum; type: biochemical; details: for Ratio AChE/BuChE: selectivity for BuChE inhibition: IC50 (AchE)/IC50 (BuChE); for selectivity to butyrylcholinesterase (BuChE versus AChE inhibitory activity), in words: summary of Tables 1-3
T2 construct: brain homogenate and serum of mouse were used as choline esterase enzyme sources; from tissue; host or cells: mouse serum
Experimental: as §1, §2, §3

[3] = mouse brain homogenate, acetylthiocholine, absorbance at 415 nm, read-out: AChE inhibitory activity IC50
[4] = mouse serum, butyrylthiocholine, absorbance at 415 nm, read-out: BuChE inhibitory activity IC50

T2 sequence (Q03311 30-603): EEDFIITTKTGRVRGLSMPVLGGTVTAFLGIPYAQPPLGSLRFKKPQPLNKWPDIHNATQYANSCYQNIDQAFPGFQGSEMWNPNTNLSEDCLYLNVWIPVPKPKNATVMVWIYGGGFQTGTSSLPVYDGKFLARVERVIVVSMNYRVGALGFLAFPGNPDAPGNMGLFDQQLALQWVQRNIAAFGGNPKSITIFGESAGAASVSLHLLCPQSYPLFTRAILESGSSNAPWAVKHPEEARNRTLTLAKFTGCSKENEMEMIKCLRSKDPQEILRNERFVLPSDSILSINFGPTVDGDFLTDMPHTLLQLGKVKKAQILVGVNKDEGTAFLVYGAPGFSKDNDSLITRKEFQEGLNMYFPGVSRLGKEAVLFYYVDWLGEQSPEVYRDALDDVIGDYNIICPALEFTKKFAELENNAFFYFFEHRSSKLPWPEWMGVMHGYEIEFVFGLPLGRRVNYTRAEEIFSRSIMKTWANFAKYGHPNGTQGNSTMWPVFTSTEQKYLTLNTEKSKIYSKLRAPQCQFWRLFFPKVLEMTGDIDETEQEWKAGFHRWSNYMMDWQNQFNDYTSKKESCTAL

## CC(C)c1ccc(NC(=O)Oc2ccc3c(c2)C(C)CN3Cc2ccccc2)cc1 (stereo not shown) [Example 146, 1-benzyl-3-methylindolin-5-yl-4-isopropylphenylcarbamate]
[1]; [3]
  IC50: > 100000 nM
[2]; [4]
  IC50: 180 nM
[2]
  Ratio AChE/BuChE: >560

## CC(C)c1ccc(NC(=O)Oc2ccc3c(c2)CCN3Cc2ccccn2)cc1 [Example 60, 1-(2-pyridylmethyl)indolin-5-yl 4-isopropylphenylcarbamate]
[1]
  IC50: > 100000 nM
[2]
  IC50: 130 nM
  Ratio AChE/BuChE: >770

## O=C(NCc1cccs1)Oc1ccc2c(c1)CCN2Cc1ccccc1 [Example 98, 1-benzylindolin-5-yl 2-thiophenemethylcarbamate]
[1]; [3]
  IC50: 1600 nM
[2]; [4]
  IC50: 12 nM
[2]
  Ratio AChE/BuChE: 130
  selectivity to butyrylcholinesterase (BuChE versus AChE inhibitory activity), in words: much higher

## CSCCCNC(=O)Oc1ccc2c(c1)CCN2Cc1ccccc1 [Example 49, 1-benzylindolin-5-yl 3-methylthiopropylcarbamate]
[1]; [3]
  IC50: 6300 nM
[2]; [4]
  IC50: 12 nM
[2]
  Ratio AChE/BuChE: 530
  selectivity to butyrylcholinesterase (BuChE versus AChE inhibitory activity), in words: much higher

## CN(CC1CCCCC1)C(=O)Oc1ccc2c(c1)CCN2Cc1ccccc1 [Example 214, O-(1-benzylindolin-5-yl)-N-(cyclohexylmethyl)-N-methylcarbamate]
[1]
  IC50: > 100000 nM
[2]
  IC50: 51 nM
  Ratio AChE/BuChE: >2000
  selectivity to butyrylcholinesterase (BuChE versus AChE inhibitory activity), in words: much higher

## O=C(NCCc1cccnc1)Oc1ccc2c(c1)CCN2Cc1ccccc1 [Example 120, 1-benzylindolin-5-yl 2-(3-pyridyl)ethylcarbamate]
[1]; [3]
  IC50: 8500 nM
[2]; [4]
  IC50: 24 nM
[2]
  Ratio AChE/BuChE: 350
  selectivity to butyrylcholinesterase (BuChE versus AChE inhibitory activity), in words: much higher

## CCCNC(=O)Oc1ccc2c(c1)CCN2Cc1ccccc1 [Example 114, 1-benzylindolin-5-yl n-propylcarbamate]
[1]; [3]
  IC50: 5200 nM
[2]; [4]
  IC50: 180 nM
[2]
  Ratio AChE/BuChE: 29

## O=C(NC1CCN(Cc2ccccc2)CC1)Oc1ccc2c(c1)CCN2Cc1ccccc1 [Example 138, 1-benzylindolin-5-yl 1-benzylpiperidin-4-ylcarbamate]
[1]
  IC50: > 100000 nM
[2]
  IC50: 900 nM
  Ratio AChE/BuChE: >110

## CN(CC1CCOCC1)C(=O)Oc1ccc2c(c1)C(C)(C)CN2Cc1cccnc1 [Example 219, N-methyl-O-[1-(3-pyridylmethyl)-3,3-dimethylindolin-5-yl]-N-(4-tetrahydropyranylmethyl)carbamate]
[1]
  IC50: 20000 nM
[2]
  IC50: 1.2 nM
  Ratio AChE/BuChE: 17000
  selectivity to butyrylcholinesterase (BuChE versus AChE inhibitory activity), in words: much higher

## Cc1ccc(NC(=O)Oc2ccc3c(c2)CCN3Cc2ccccc2)cc1 [Example 55, 1-benzylindolin-5-yl-4-methylphenylcarbamate]
[1]; read-out: AChE inhibitory activity IC50
  IC50: > 100000 nM
[2]; [4]
  IC50: 290 nM
[2]
  Ratio AChE/BuChE: >340

## CC(C)c1ccc(NC(=O)Oc2ccc3c(c2)CCN3Cc2ccccc2)cc1 [Example 2, 1-benzylindolin-5-yl 4-isopropylphenylcarbamate]
[1]
  IC50: > 100000 nM
[2]
  IC50: 570 nM
  Ratio AChE/BuChE: >180

## O=C(NC1Cc2ccccc2C1)Oc1ccc2c(c1)CCN2Cc1ccccc1 [Example 44, 1-benzylindolin-5-yl 2-indanylcarbamate]
[1]
  IC50: > 100000 nM
[2]
  IC50: 32 nM
  Ratio AChE/BuChE: >3100
  selectivity to butyrylcholinesterase (BuChE versus AChE inhibitory activity), in words: much higher

## O=C(NC1CCCCC1)Oc1ccc2c(c1)CCN2Cc1ccccn1 [Example 149, 1-(2-pyridylmethyl)indolin-5-yl cyclohexylcarbamate]
[1]; [3]
  IC50: 2200 nM
[2]; [4]
  IC50: 58 nM
[2]
  Ratio AChE/BuChE: 38

## O=C(NCC12CC3CC(CC(C3)C1)C2)Oc1ccc2c(c1)CCN2Cc1ccccc1 [Example 47, 1-benzylindolin-5-yl 1-adamantanemethylcarbamate]
[1]
  IC50: > 100000 nM
[2]
  IC50: 82 nM
  Ratio AChE/BuChE: >1200
  selectivity to butyrylcholinesterase (BuChE versus AChE inhibitory activity), in words: much higher

## Cc1ccc(CNC(=O)Oc2ccc3c(c2)CCN3Cc2ccccc2)cc1 [Example 99, 1-benzylindolin-5-yl-4-methylbenzylcarbamate]
[1]; [3]
  IC50: 14000 nM
[2]; [4]
  IC50: 21 nM
[2]
  Ratio AChE/BuChE: 670
  selectivity to butyrylcholinesterase (BuChE versus AChE inhibitory activity), in words: much higher

## CCCCCCNC(=O)Oc1ccc2c(c1)CCN2Cc1ccccc1 [Example 17, 1-benzylindolin-5-yl n-hexylcarbamate]
[1]; [3]
  IC50: 8000 nM
[2]; [4]
  IC50: 16 nM
[2]
  Ratio AChE/BuChE: 500
  selectivity to butyrylcholinesterase (BuChE versus AChE inhibitory activity), in words: much higher

## O=C(NCCc1ccncc1)Oc1ccc2c(c1)CCN2Cc1ccccc1 [Example 119, 1-benzylindolin-5-yl 2-(4-pyridyl)ethylcarbamate]
[1]; [3]
  IC50: 14000 nM
[2]; [4]
  IC50: 59 nM
[2]
  Ratio AChE/BuChE: 240
  selectivity to butyrylcholinesterase (BuChE versus AChE inhibitory activity), in words: much higher

## O=C(Nc1ccc2c(c1)CCO2)Oc1ccc2c(c1)CCN2Cc1ccccc1 [Example 14, 1-benzylindolin-5-yl 2,3-dihydro-1-benzofuran-5-ylcarbamate]
[1]; [3]
  IC50: 2700 nM
[2]; [4]
  IC50: 41 nM
[2]
  Ratio AChE/BuChE: 66

## CC(C)(C)CCNC(=O)Oc1ccc2c(c1)CCN2Cc1ccccc1 [Example 42, 1-benzylindolin-5-yl 3,3-dimethylbutylcarbamate]
[1]
  IC50: > 100000 nM
[2]
  IC50: 23 nM
  Ratio AChE/BuChE: >4300
  selectivity to butyrylcholinesterase (BuChE versus AChE inhibitory activity), in words: much higher

## O=C(NCCC1CCN(Cc2ccccc2)CC1)Oc1ccc2c(c1)CCN2Cc1ccccc1 [Example 139, 1-benzylindolin-5-yl 2-(1-benzylpiperidin-4-yl)ethylcarbamate]
[1]
  IC50: 2700 nM
[2]
  IC50: 43 nM
  Ratio AChE/BuChE: 63

## O=C(NCc1ccccc1)Oc1ccc2c(c1)CCN2Cc1ccccc1 [Example 15, 1-benzylindolin-5-yl benzylcarbamate]
[1]; [3]
  IC50: 1800 nM
[2]; [4]
  IC50: 13 nM
[2]
  Ratio AChE/BuChE: 140
  selectivity to butyrylcholinesterase (BuChE versus AChE inhibitory activity), in words: much higher

## O=C(NCC1CCCCC1)Oc1ccc2c(c1)CCN2Cc1ccccn1 [Example 148, 1-(2-pyridylmethyl)indolin-5-yl cyclohexylmethylcarbamate]
[1]; [3]
  IC50: 1200 nM
[2]; [4]
  IC50: 2 nM
[2]
  Ratio AChE/BuChE: 600
  selectivity to butyrylcholinesterase (BuChE versus AChE inhibitory activity), in words: much higher

## COc1ccc(CNC(=O)Oc2ccc3c(c2)CCN3Cc2ccccc2)cc1 [Example 31, 1-benzylindolin-5-yl 4-methoxybenzylcarbamate]
[1]; [3]
  IC50: 4100 nM
[2]; [4]
  IC50: 17 nM
[2]
  Ratio AChE/BuChE: 240
  selectivity to butyrylcholinesterase (BuChE versus AChE inhibitory activity), in words: much higher

## O=C(NCC1CCOC1)Oc1ccc2c(c1)CCN2Cc1ccccc1 (stereo not shown) [Example 155, 1-benzylindolin-5-yl 3-tetrahydrofurylmethylcarbamate]
[1]; [3]
  IC50: 57000 nM
[2]; [4]
  IC50: 15 nM
[2]
  Ratio AChE/BuChE: 3800
  selectivity to butyrylcholinesterase (BuChE versus AChE inhibitory activity), in words: much higher

## O=C(Nc1ccc2c(c1)OCCO2)Oc1ccc2c(c1)CCN2Cc1ccccc1 [Example 11, 1-benzylindolin-5-yl 2,3-dihydro-1,4-benzodioxin-6-ylcarbamate]
[1]
  IC50: > 100000 nM
[2]
  IC50: 170 nM
  Ratio AChE/BuChE: >590

## O=C(NCCc1ccc(Cl)cc1)Oc1ccc2c(c1)CCN2Cc1ccccc1 [Example 104, 1-benzylindolin-5-yl 4-chlorophenethylcarbamate]
[1]; [3]
  IC50: 5500 nM
[2]; [4]
  IC50: 11 nM
[2]
  Ratio AChE/BuChE: 500
  selectivity to butyrylcholinesterase (BuChE versus AChE inhibitory activity), in words: much higher

## CCCN(CCC)C(=O)CC1c2cc(OC(=O)Nc3ccc(C(C)C)cc3)ccc2N(Cc2ccccc2)C1C (stereo not shown) [Example 162, 1-benzyl-3-(di-n-propylaminocarbonylmethyl)-2-methylindolin-5-yl 4-isopropyl phenylcarbamate]
[1]
  IC50: > 100000 nM
[2]
  IC50: 410 nM
  Ratio AChE/BuChE: >240

## O=C(NC1CC1)Oc1ccc2c(c1)CCN2Cc1ccccc1 [Example 41, 1-benzylindolin-5-yl cyclopropylcarbamate]
[1]; [3]
  IC50: 36000 nM
[2]; [4]
  IC50: 190 nM
[2]
  Ratio AChE/BuChE: 190

## O=C(NCc1ccccc1)Oc1ccc2c(c1)CCN2 [Example 127, indolin-5-yl benzylcarbamate]
[1]; [3]
  IC50: 750 nM
[2]; [4]
  IC50: 610 nM
[2]
  Ratio AChE/BuChE: 1.2
